Legend:
E0771 tumor = E0771 tumor growth in mice (incl. shRNA sublines, cell depletion); type: in vivo
Description: (§1) FIGS. 3A-D show the therapeutic effects of echinomycin on tumor growth in immunodeficient and immunocompetent mice. FIG. 3A. Experimental design. Three murine tumor lines were tested: 4T1, E0771, or MC38. For each, immunodeficient and immunocompetent mice were inoculated (day 0), and treatment was initiated with control liposomes (vehicle) or echinomycin liposomes (LEM) on day 6, indicated by arrows in FIGS. 3B-3D. The kinetics of tumor growth were compared to deduce the role of adaptive immunity in the therapeutic effects of echinomycin. FIG. 3B. 4T1 cells (1×10^6) were transplanted into mammary fat pad of NSG and BALB/c mice, which received vehicle or echinomycin (0.15 mg/kg) (arrows). Mean tumor volumes±SEM are shown for one of two independent experiments (n=10/group). FIG. 3C. Kinetics of E0771 tumor growth. E0771 cells (0.7×10^6) were transplanted into mammary fat pad of NSG and C57BL/6 mice, which received vehicle or echinomycin (0.25 mg/kg) (arrows). Mean tumor volumes±SEM are shown for one of two independent experiments (n=5/group). FIG. 3D. Kinetics of MC38 tumor growth. MC38 cells (1×10^6) were transplanted subcutaneously into NSG and C57BL/6 mice, which received vehicle or echinomycin (0.15 mg/kg) (blue arrows). Mean tumor volumes±SEM are shown for one of two independent experiments (n=5/group).
FIGS. 4A-D show the effects of pharmacological and/or genetic targeting of HIF-1α on E0771 tumor growth in immunodeficient or immunocompetent mice. FIG. 4A. Experimental design. Three sublines of E0771 were generated by lentiviral transduction: scrambled shRNA (sh^−Scr), or shRNA for the Hif1α (sh^−Hif1α) or Pdl1 (sh^−Pdl1) genes. For each subline, 0.5×10^6 cells were orthotopically transplanted into NSG or C57BL/6 mice (day 0), which received vehicle or echinomycin (0.25 mg/kg) starting day 6. FIG. 4B. Effects of Hif1α or Pdl1 knockdown on E0771 growth among immunodeficient or immunocompetent recipients. FIG. 4C. Effects of vehicle or echinomycin on sh^−Scr, sh^−Hif1α, or sh^−Pdl1 E0771 growth in immunocompetent C57BL/6 recipients. FIG. 4D. Effects of vehicle or echinomycin (arrows) on sh^−Scr, sh^−Hif1α, or sh^−Pdl1 E0771 growth in immunodeficient NSG recipients. Data shown are means+/−SEM (n=5/group) and are representative of 2 experiments.
FIGS. 5A-D show at echinomycin potentiates the therapeutic effect of anti-CTLA-4 antibody. FIG. 5A. Experimental design. In 4T1, E0771, or MC38 syngeneic tumor models, the effects of echinomycin on tumor growth were tested in combination with anti-CTLA-4 therapy (9D9). Tumor growth kinetics in mice receiving vehicle, echinomycin, and anti-CTLA-4 (9D9) monotherapies, or anti-CTLA-4+anti-PD-1 (9D9+RMP1-14) are shown. Starting on day 6 after tumor cell inoculation, mice received vehicle or echinomycin and/or various mAbs. The mean tumor volumes±SEM are shown for each group. FIG. 5B. Effects of 9D9+echinomycin on 4T1 tumor growth. BALB/c mice received vehicle, liposomal echinomycin (LEM, 0.15 mg/kg) (blue arrows), 9D9 (0.2 mg/mouse/injection) (red arrows), or both (n=10/group). Data shown for one of three independent experiments. FIG. 5C. Effects of 9D9+echinomycin on syngeneic E0771 growth. E0771 cells (0.5×10^6) were orthotopically transplanted into the mammary fat pads of C57BL/6 mice. Mice received vehicle or echinomycin (0.25 mg/kg) and/or various mAbs (0.2 mg/mouse/injection) (red arrows). Representative data shown for one of three independent experiments (n=5/group). FIG. 5D. […]

4T1 tumor = 4T1 tumor growth in mice; type: in vivo; details: for 4T1 tumor growth: echinomycin 0.15 mg/kg, vs vehicle
Description: as §1
FIGS. 5A-D show at echinomycin potentiates the therapeutic effect of anti-CTLA-4 antibody. FIG. 5A. Experimental design. In 4T1, E0771, or MC38 syngeneic tumor models, the effects of echinomycin on tumor growth were tested in combination with anti-CTLA-4 therapy (9D9). Tumor growth kinetics in mice receiving vehicle, echinomycin, and anti-CTLA-4 (9D9) monotherapies, or anti-CTLA-4+anti-PD-1 (9D9+RMP1-14) are shown. Starting on day 6 after tumor cell inoculation, mice received vehicle or echinomycin and/or various mAbs. The mean tumor volumes±SEM are shown for each group. […]
Tumor Models The details of each experiment are specified in the figure legends. […] Tumor volumes were calculated and reported based on the formula […], where a is the longer diameter, and b is the shorter diameter. […]

CSC1SC[C@H]2C(=O)N(C)[C@@H](C(C)C)C(=O)OC[C@@H](NC(=O)c3cnc4ccccc4n3)C(=O)N[C@@H](C)C(=O)N(C)[C@@H]1C(=O)N(C)[C@@H](C(C)C)C(=O)OC[C@@H](NC(=O)c1cnc3ccccc3n1)C(=O)N[C@@H](C)C(=O)N2C (stereo in doubt) [echinomycin, N,N′-(2,4,12,15,17,25-hexamethyl-11,24-bis(1-methylethyl)-27-(methylthio)-3,6,10,13,16,19,23,26-octaoxo-9,22-dioxa-28-thia-2,5,12,15,18,25-hexaazabicyclo(12.12.3)nonacosane-7,20-diyl)bis(2-quinoxalinecarboxamide)]
E0771 tumor growth, combination study (E0771 tumor; C57BL/6, echinomycin 0.25 mg/kg, mAbs 0.2 mg/mouse/injection, vs vehicle): significant inhibition of tumor growth | sh-Scr E0771 tumor growth (E0771 tumor; C57BL/6 compared to NSG recipients, echinomycin 0.25 mg/kg): more effectively inhibited | sh-Pdl1 E0771 tumor growth (E0771 tumor; C57BL/6 or NSG recipients, echinomycin 0.25 mg/kg): did not further suppress | E0771 tumor growth (E0771 tumor; immunocompetent C57BL/6, echinomycin 0.25 mg/kg): therapeutic effect on immune competent | sh-Hif1α E0771 tumor growth (E0771 tumor; regardless of recipient strain (C57BL/6, NSG), echinomycin 0.25 mg/kg): did not inhibit | 4T1 growth inhibition, immunocompetent vs immunodeficient mice (4T1 tumor; BALB/c vs NSG): more significantly inhibited in immunocompetent mice than in immunodeficient mice | 4T1 tumor growth (4T1 tumor; immunocompetent BALB/c): significantly inhibited 4T1 tumor growth | 4T1 tumor growth (4T1 tumor; immunodeficient NSG): significantly inhibited 4T1 tumor growth

From US20240139280A1, “USE OF HIF-1-ALPHA INHIBITORS IN CANCER IMMUNOTHERAPY” (ONCOC4, INC., priority 2021, published 2024)
